Literature values, collected in patent publication US5594133A, “Crystalline acid addition salts of diastereomerically pure 1-(2,2-dimethylpropinonyloxy)-ethyl-3-cephem-4-carboxylate” (Hoechst Aktiengesellschaft, priority 1991, dated 1997).

Assays:
[1] = T. Nishimura et al., J. Antibiotics XL (1987) 81-90
[2] = EP-A-0 329 008

Compound	influence of the stereochemistry in the 1-position of the ethyl ester group on enteral absorbability [1]	splitting by endogenous enzymes into the cephalosporin containing the free carboxyl group ([2]; after absorption)	enteral absorption ([2]; various animal species)
CC(OC(=O)OC1CCCCC1)OC(=O)C1=C(CSc2nnnn2CCN(C)C)CS[C@@H]2[C@H](NC(=O)Cc3csc(N)n3)C(=O)N12 (stereo partly drawn) [cefotiam-hexetil]	no influence on enteral absorbability	–	–
COCC1=C(C(=O)OC(C)OC(=O)C(C)(C)C)N2C(=O)C(NC(=O)/C(=N\O)c3csc(N)n3)[C@H]2SC1 (stereo partly drawn) [ester of the formula I, 1-(2,2-dimethylpropionyloxy)-ethyl 7-[2-(2-aminothiazol-4-yl)-2-(Z)-hydroxyimino-acetamido]-3-methoxymethyl-3-cephem-4-carboxylate]	–	split again rapidly and completely	absorbed well enterally
